Measured values: US20080227655A1, “Assessment of effect of an agent on a human biological condition using rodent gene expression panels” (priority 2006, published 2008)
“And” between values parts separate entries of the source, which are not always exact repeats. Identical values can stand only once.

System: custom murine 40-gene Precision Profile for Rheumatoid Arthritis, whole blood
Assay: KRN (K/BxN) serum transfer induced arthritis model, whole blood gene expression by QPCR, vehicle or dexamethasone treatment
Format: in vivo, female BALB/c mice
Procedure: Whole blood gene expression changes were evaluated in vehicle control and drug-treated murine subjects across two murine models of arthritis according to the following arthritis models:
KRN Transgenic Mouse (K/B×N): K/B×N serum from transgenic mouse used to induce arthritis in female BALB/c mice (n=54). Collagen Induced Arthritis (CIA): Bovine type II collagen used to induce arthritis in male DBA/1 mice (n=54).
In addition, naïve, untreated animal groups at baseline and terminal day were included to control for potential age-related changes in gene expression over the extended study periods. Animal groups, time-points, and treatment schedules are summarized in Tables 20A and 20B, respectively.
Whole blood samples from animals were collected by retro-orbital bleed at selected time-points in accordance with the arthritis study schemas described in […], and transferred into sample collection tubes containing a 1.5× lysis solution and RPMI. Samples were processed into total RNA and cDNA. […] It was anticipated from these murine models would provide a better understanding of the relevant molecular response of arthritis induction and their potential correlation to the human disease condition.
Normal murine subject reference values (represented as normalized Ct or ΔCt values) were established for male DBA/1 mice (n=6 for the CIA study arm) and female BALB/c mice (n=6 for the KRN study arm). In both arms of the study, gene expression response of normal (naïve, non-immunized and untreated) murine subjects were evaluated in groups of 6 each at day 0 and day 60 for the CIA study arm, and at day 0 and day 21 for the KRN study arm (see Tables 20A and 20B).
Gene expression responses for the arthritis-induced murine model were evaluated for untreated mice at day 3 and vehicle-treated mice at days 7, 14 and 21 to characterize disease progression.

[1] = KRN Day 7, Dex-treated, group Average
[2] = KRN Day 7, Dex-treated, individual murine subject, listed as Dex
[3] = KRN Day 7 Dex, group Average, whole blood
[4] = KRN Day 7 Dex, individual mouse, whole blood, listed as Dex
[5] = KRN Day 14, Dex-treated, group Average
[6] = KRN Day 14, Dex-treated, individual murine subject

Structure (SMILES): C[C@@H]1C[C@H]2[C@@H]3CCC4=CC(=O)C=C[C@]4(C)[C@@]3(F)[C@@H](O)C[C@]2(C)[C@@]1(O)C(=O)CO [Dexamethasone]
- Normalized CT Value (Delta CT) IL1RAP_M [1]: 18.33
- Normalized CT Value (Delta CT) IL1RN—M [1]: 17.22
- Normalized CT Value (Delta CT) IL6_M [1]: 25.38
- Normalized CT Value (Delta CT) JUN_M [1]: 18.89
- Normalized CT Value (Delta CT) MEF2C—M [1]: 18.74
- Normalized CT Value (Delta CT) MMP9—M [1]: 13.84
- Normalized CT Value (Delta CT) NFKB1—M [1]: 15.89
- Normalized CT Value (Delta CT) PADI4—M [1]: 18.34
- Normalized CT Value (Delta CT) PLA2G7—M [1]: 14.34
- Normalized CT Value (Delta CT) PTPRC_M [1]: 13.18
- Normalized CT Value (Delta CT) PTX3_M [1]: 25.34
- Normalized CT Value (Delta CT) SERPINE1_M [1]: 19.43
- Normalized CT Value (Delta CT) TGFB1_M [1]: 14.97
- Normalized CT Value (Delta CT) TIMP1_M [1]: 24.84
- Normalized CT Value (Delta CT) TLR2_M [1]: 17.04
- Normalized CT Value (Delta CT) TLR4_M [1]: 17.74
- Normalized CT Value (Delta CT) TNFSF5—M [1]: 19.10
- Normalized CT Value (Delta CT) TNF_M [1]: 19.04
- Normalized CT Value (Delta CT) VEGF_M [1]: 20.01
- Normalized CT Value (Delta CT) IL1RAP_M [2]: 18.35 and 18.23 and 18.52 and 17.82 and 18.87 and 18.20
- Normalized CT Value (Delta CT) IL1RN—M [2]: 17.09 and 17.55 and 17.42 and 16.65 and 17.60 and 17.00
- Normalized CT Value (Delta CT) IL6_M [2]: 25.25 and 25.61 and 25.41 and 25.23 and 25.30 and 25.45
- Normalized CT Value (Delta CT) JUN_M [2]: 18.66 and 18.44 and 19.15 and 18.37 and 19.81 and 18.91
- Normalized CT Value (Delta CT) MEF2C—M [2]: 19.10 and 17.75 and 19.18 and 18.50 and 19.03 and 18.87
- Normalized CT Value (Delta CT) MMP9—M [2]: 13.85 and 13.83
- Normalized CT Value (Delta CT) NFKB1—M [2]: 16.06 and 14.93 and 16.25 and 15.43 and 16.52 and 16.16
- Normalized CT Value (Delta CT) PADI4—M [2]: 18.44 and 18.48 and 18.77 and 17.63 and 18.63 and 18.10
- Normalized CT Value (Delta CT) PLA2G7—M [2]: 14.36 and 13.77 and 14.74 and 13.71 and 14.94 and 14.53
- Normalized CT Value (Delta CT) PTPRC_M [2]: 13.36 and 12.55 and 13.38 and 12.76 and 13.68 and 13.33
- Normalized CT Value (Delta CT) PTX3_M [2]: 25.27 and 25.26 and 25.48 and 25.42 and 25.11 and 25.50
- Normalized CT Value (Delta CT) SERPINE1_M [2]: 19.43 and 18.99 and 19.66 and 19.03 and 19.81 and 19.67
- Normalized CT Value (Delta CT) TGFB1_M [2]: 15.24 and 14.22 and 15.34 and 14.62 and 15.36 and 15.02
- Normalized CT Value (Delta CT) TIMP1_M [2]: 24.76 and 24.74 and 24.73 and 24.34 and 25.09 and 25.40
- Normalized CT Value (Delta CT) TLR2_M [2]: 17.41 and 16.20 and 17.63 and 16.31 and 17.86 and 16.84
- Normalized CT Value (Delta CT) TLR4_M [2]: 17.64 and 17.44 and 18.32 and 16.84 and 18.23 and 17.96
- Normalized CT Value (Delta CT) TNFSF5—M [2]: 19.49 and 18.16 and 19.15 and 18.68 and 19.51 and 19.59
- Normalized CT Value (Delta CT) TNF_M [2]: 19.01 and 18.04 and 19.79 and 18.91 and 19.32 and 19.14
- Normalized CT Value (Delta CT) VEGF_M [2]: 20.04 and 20.59 and 20.09 and 19.19 and 20.31 and 19.85
- ABCA1_M Normalized CT Value (Delta CT) [3]: 17.55
- APAF1_M Normalized CT Value (Delta CT) [3]: 18.58
- CASP1_M Normalized CT Value (Delta CT) [3]: 17.59
- CASP3_M Normalized CT Value (Delta CT) [3]: 17.32
- CCR3_M Normalized CT Value (Delta CT) [3]: 18.72
- CD3Z_M Normalized CT Value (Delta CT) [3]: 16.52
- CD8A_M Normalized CT Value (Delta CT) [3]: 17.53
- CD14_M Normalized CT Value (Delta CT) [3]: 19.08
- CD86_M Normalized CT Value (Delta CT) [3]: 21.94
- CSPG2_M Normalized CT Value (Delta CT) [3]: 18.69
- F3_M Normalized CT Value (Delta CT) [3]: 22.96
- HMOX1_M Normalized CT Value (Delta CT) [3]: 17.15
- HSPA1A—M Normalized CT Value (Delta CT) [3]: 21.13
- ICAM1—M Normalized CT Value (Delta CT) [3]: 18.39
- IFI16—M Normalized CT Value (Delta CT) [3]: 16.29
- IL1B_M Normalized CT Value (Delta CT) [3]: 13.94
- IL10_M Normalized CT Value (Delta CT) [3]: 25.42
- ABCA1_M Normalized CT Value (Delta CT) [4]: 18.22 and 16.54 and 17.90 and 16.93 and 18.24 and 17.49
- APAF1_M Normalized CT Value (Delta CT) [4]: 18.85 and 18.10 and 18.95 and 18.00 and 19.01 and 18.59
- ARG2_M Normalized CT Value (Delta CT) [4]: 17.02 and 17.06 and 17.28 and 16.20 and 17.35 and 16.48
- CASP1_M Normalized CT Value (Delta CT) [4]: 17.64 and 16.61 and 18.07 and 17.26 and 18.15 and 17.79
- CASP3_M Normalized CT Value (Delta CT) [4]: 17.09 (2×) and 17.18 and 17.10 and 17.91 and 17.54
- CCR3_M Normalized CT Value (Delta CT) [4]: 18.09 and 18.62 and 18.24 and 18.86 and 18.96 and 19.54
- CD3Z_M Normalized CT Value (Delta CT) [4]: 16.64 and 15.65 and 16.81 and 16.13 and 16.77 and 17.10
- CD8A_M Normalized CT Value (Delta CT) [4]: 17.59 and 17.17 and 17.84 and 17.11 and 17.75 and 17.73
- CD14_M Normalized CT Value (Delta CT) [4]: 19.53 and 18.14 and 19.42 and 18.23 and 20.06 and 19.13
- CD86_M Normalized CT Value (Delta CT) [4]: 22.58 and 20.83 and 22.75 and 21.71 and 22.21 and 21.57
- CSPG2_M Normalized CT Value (Delta CT) [4]: 19.41 and 17.60 and 19.56 and 17.94 and 19.13 and 18.51
- F3_M Normalized CT Value (Delta CT) [4]: 22.15 and 23.54 and 24.16 and 21.10 and 25.46 and 21.36
- HMOX1_M Normalized CT Value (Delta CT) [4]: 17.27 and 16.34 and 17.85 and 15.97 and 18.08 and 17.40
- HSPA1A—M Normalized CT Value (Delta CT) [4]: 21.03 and 20.92 and 21.32 and 20.88 and 21.99 and 20.62
- ICAM1—M Normalized CT Value (Delta CT) [4]: 18.70 and 17.80 and 18.96 and 18.10 and 18.69 and 18.08
- IFI16—M Normalized CT Value (Delta CT) [4]: 16.35 and 14.96 and 17.17 and 16.15 and 16.73 and 16.40
- IL1B_M Normalized CT Value (Delta CT) [4]: 14.33 and 13.94 and 14.24 and 13.43 and 14.32
- IL10_M Normalized CT Value (Delta CT) [4]: 25.39 and 25.60 and 25.53 and 25.18 and 25.34 and 25.45
- Normalized CT Value (Delta CT) IL1RAP_M [5]: 18.59
- Normalized CT Value (Delta CT) IL1RN—M [5]: 17.70
- Normalized CT Value (Delta CT) IL6_M [5]: 25.48
- Normalized CT Value (Delta CT) JUN_M [5]: 19.67
- Normalized CT Value (Delta CT) MEF2C—M [5]: 20.33
- Normalized CT Value (Delta CT) MMP9—M [5]: 14.45
- Normalized CT Value (Delta CT) NFKB1—M [5]: 17.29
- Normalized CT Value (Delta CT) PADI4—M [5]: 18.79
- Normalized CT Value (Delta CT) PLA2G7—M [5]: 15.21
- Normalized CT Value (Delta CT) PTPRC_M [6]: 14.30
- Normalized CT Value (Delta CT) PTX3_M [6]: 25.29
- Normalized CT Value (Delta CT) SERPINE1_M [6]: 19.63
- Normalized CT Value (Delta CT) TGFB1_M [6]: 16.04
- Normalized CT Value (Delta CT) TIMP1_M [6]: 25.27
- Normalized CT Value (Delta CT) TLR2_M [6]: 18.52
